These results are taken from PMC6384730, “Systematic Identification of Thiosemicarbazides for Inhibition of Toxoplasma gondii Growth In Vitro” (Molecules, 2019).

In series [1] the test system is T. gondii RH tachyzoites. As to the kind of experiment: Influence on T. gondii proliferation ([3H]uracil incorporation) in infected Vero cells. In kind it is cell-based, Toxoplasma gondii. Particulars: for IC50: Toxoplasma gondii, Vero.
Procedure: Vero cell line (African green monkey kidney) (ATCC® CCL-81™) were maintained in EMEM (EMEM/10%HIFBS/P/S) (Eagle’s Minimum Essential Medium—ATCC® 30-2003™) culture medium supplemented with 10% HIFBS (Heat-Inactivated (1 h in 56°C) Fetal Bovine Serum—ATCC), 100 U/mL penicillin, 100 μg/mL streptomycin. The cell line was trypsinized (using Trypsin-EDTA Solution, 1X ATCC® 30-2101™) twice a week, and seeded at density 1 × 10^6 per T25 cell culture flask (Falcon), and incubated for 24–48 h at 37 °C and 5 CO2 to achieve a confluent monolayer. The highly virulent RH strain of Toxoplasma gondii, haplogroup I (ATCC® PRA-310™) were maintained as tachyzoites according to the ATCC product sheet, in DMEM (Dulbecco’s Modified Eagle’s Medium—ATCC® 30-2002™) (DMEM/3%HIFBS/P/S—parasite culture medium) under condition 37 °C and 5 CO2 and passage twice per week.
The Vero cells were seeded on 96-well plates (1 × 10^5 cells/100 µL/well) in EMEM/10%HIFBS/P/S. After 24 h of incubation medium was removed and then T. gondii RH tachyzoites were added to the cell monolayers at density 1 × 10^5 cells/100 µL/well in DMEM/3%HIFBS/P/S. One hour later different compounds and sulfadiazine dilutions (100 µL/well) in parasite culture medium were added to the cell monolayers with T. gondii. After subsequent 24 h of incubation 1 µCi/well [5,6-^3H] uracil (Moravek Biochemicals Inc., Brea, CA, USA) was applied to each microculture for further 72 h. The amount of the isotope incorporated into the parasite nucleic acid pool, corresponding to the parasite growth, was measured by liquid scintillation counting using 1450 Microbeta Plus Liquid Scintillation Counter (Wallac Oy, Turku, Finland). The results were expressed as counts per minute (CPM) and transformed to the percentage of viability compared to untreated cells. All experiments were performed in triplicate.
The nature of series [2]: MTT cell viability (cytotoxicity) assay on L929 cells. The series is classed as cell-based, mouse. Particulars: mouse, 24 h, % of untreated cells; for viability at 24 h, 62.5 µg/mL: 62.50 µg/mL. The procedure:
(§1) Cells were trypsinized twice a week, and seeded at density 1 × 10^6 per T25 cell culture flask, and incubated for 24-48 h at 37 °C and 10% CO2 to achieve a confluent monolayer. […] The final concentration of DMSO in compounds dilutions was not higher than 1.00%. […] Dilution of the all compounds 2-22 and drug were freshly prepared before the cells were exposed. […] The MTT assay was used according to international standards: ISO 10993-5:2009(E), Biological evaluation of medical devices, Part 5: Tests for in vitro cytotoxicity. […] Afterward, the culture medium in the plates was replaced by 100 μL of compounds and sulfadiazine suspension and the cells were exposed for 24 h. Then, 1 mg/mL of MTT solution in RPMI 1640 without phenol red was prepared and 50 μL of the solution was added to each well and incubated at 37 °C, 10% CO2 for 2 h. Mitochondrial dehydrogenases of viable cells reduced the yellowish water-soluble MTT to water-insoluble formazan crystals, which were solubilized with dimethyl sulfoxide (DMSO). The cell culture medium was aspirated cautiously, after which 150 μL DMSO was added to each well, the plates were gently mixed, then 25 μL 0.1 M glycine buffer (pH = 10.5) (Sigma) was added. Optical density was read on the ELISA reader (Multiskan EX, Labsystems, Vienna, VA, USA) at 570 nm. The results were expressed as the percentage of viability compared to untreated cells. All experiments were performed in triplicate. Moreover, cells were treated with 4.0-0.03% concentration of DMSO as a compounds solvent (data not shown).

Series [3] has as its system L929 cells. Described as above. As to conditions: L929 cells, 24 h exposure. The series is classed as cell-based, mouse. The procedure:
as §1

In series [4] the test system is Toxoplasma gondii. Also noted: method as in PMID 25010466. Particulars: previously reported; cited from earlier work.
Setting [5] is: IC50 greater than 125 µg/mL (highest concentration tested), calculated by extrapolation of the curves (GraphPad Prism), read-out: IC50 (50% inhibition of T. gondii proliferation in vitro), extrapolated.
[6] abbreviates: RH tachyzoites in Vero cells, [3H]uracil incorporation, highest concentration tested 125 µg/mL, read-out: IC50 (50% inhibition of T. gondii proliferation in vitro).

In brackets after ≈: the same amount, converted by molar mass. Several values for one entry are separate records, joined by “and”; a condition that tells them apart may be missing. Equal entries are not always repeated. Where two headings read alike, the source gives them in different places. Where only a bound is given, the exact number is not on record here.

As for `Cc1ccccc1NC(=S)NNC(=O)c1[nH]cnc1C` [Compound 16, 1-(4-Methylimidazol-5-oyl)-4-(2-methylphenyl)thiosemicarbazide], the melting point (usually the temperature, or range, at which the solid turns liquid) was in the range of 210 to 212 °C. Moreover, the IC50 in series [1] (setting [5]) was roughly 150 µg/mL (≈ 519 µM). For the same molecule, in series [2] (L929 mouse fibroblast cells), the viability – broadly, a read-out of living cells in per cent, often relative to untreated cells – at 24 h, 3.91 µg/mL came out at 103%; the viability at 24 h, 7.81 µg/mL is 102%; the viability at 24 h, 15.63 µg/mL came out at 100%; the viability at 24 h, 31.25 µg/mL worked out at 93.8%. Also, in series [2] (L929 mouse fibroblast cells), the viability at 24 h, 62.5 µg/mL turned out to be 91.2%; the viability at 24 h, 125 µg/mL worked out at 79.7%; the viability at 24 h, 250 µg/mL came out at 71.5%; the viability at 24 h, 500 µg/mL was 63.4%. Also, in series [3], the “CC30 (concentration required for 30% cells proliferation inhibition)” value worked out at 288.40 µg/mL.

Turning to `O=C(NNC(=S)Nc1ccc(F)cc1)c1cccs1` [Compound 1], in series [4], the “IC50 against proliferation of Toxoplasma gondii” value is 33.17 µg/mL and the “fold more potent than sulfadiazine” value is given as “at least 15 fold”.

With `Cc1nc[nH]c1C(=O)NNC(=S)Nc1cccc(F)c1` [Compound 11, 4-(3-Fluorophenyl)-1-(4-methylimidazol-5-oyl)thiosemicarbazide], the melting point lay within 191 to 192 °C. In series [1] (setting [6]), the IC50 is roughly 118 µg/mL (≈ 402 µM). Further, in series [2] (L929 mouse fibroblast cells), the viability at 24 h, 3.91 µg/mL is 104%; the viability at 24 h, 7.81 µg/mL amounted to 101%; the viability at 24 h, 15.63 µg/mL was 99.8%; the viability at 24 h, 31.25 µg/mL stood at 92.7%. Also, in series [2] (L929 mouse fibroblast cells), the viability at 24 h, 62.5 µg/mL was found to be 75.6%; the viability at 24 h, 125 µg/mL was found to be 66%; the viability at 24 h, 250 µg/mL was 57.8%; the viability at 24 h, 500 µg/mL was 46.3%. For the same molecule, in series [3], the “CC30 (concentration required for 30% cells proliferation inhibition)” value worked out at 95.50 µg/mL.

`CCN(CC)c1ccc(NC(=S)NNC(=O)c2[nH]cnc2C)cc1` [Compound 20, 1-(4-Methylimidazol-5-oyl)-4-(4-diethyloaminophenyl)thiosemicarbazide]: the melting point is 225 to 227 °C. Further, the IC50 in series [1] (setting [6]) is 25.7 µg/mL (≈ 74.2 µM). Moreover, in series [2] (L929 mouse fibroblast cells), the viability at 24 h, 3.91 µg/mL amounted to 102%; the viability at 24 h, 7.81 µg/mL came out at 93.6%; the viability at 24 h, 15.63 µg/mL turned out to be 85.7%; the viability at 24 h, 31.25 µg/mL was 71.3%. In series [2] (L929 mouse fibroblast cells), the viability at 24 h, 62.5 µg/mL was determined as 67.9%; the viability at 24 h, 125 µg/mL amounted to 66%; the viability at 24 h, 250 µg/mL is 53.4%; the viability at 24 h, 500 µg/mL was 12.9%. Moreover, the “CC30 (concentration required for 30% cells proliferation inhibition)” value in series [3] is on record as 63.10 µg/mL.

The molecule `Cc1nc[nH]c1C(=O)NNC(=S)Nc1c(C(C)C)cccc1C(C)C` [Compound 22, 4-(2,6-Diisopropylphenyl)-1-(4-methylimidazol-5-oyl)thiosemicarbazide] yielded a melting point of 202 to 204 °C. Moreover, the IC50 in series [1] (setting [6]) amounted to 97.7 µg/mL (≈ 272 µM). For the same molecule, in series [2] (L929 mouse fibroblast cells), the viability at 24 h, 3.91 µg/mL amounted to 116%; the viability at 24 h, 7.81 µg/mL came out at 110%; the viability at 24 h, 15.63 µg/mL worked out at 101%; the viability at 24 h, 31.25 µg/mL was found to be 80.7%. In addition, in series [2] (L929 mouse fibroblast cells), the viability at 24 h, 62.5 µg/mL was 79.8%; the viability at 24 h, 125 µg/mL amounted to 76.6%; the viability at 24 h, 250 µg/mL stood at 68.2%; the viability at 24 h, 500 µg/mL is 58.8%. Moreover, the “CC30 (concentration required for 30% cells proliferation inhibition)” value in series [3] was determined as 190.55 µg/mL.

On to `Nc1ccc(S(=O)(=O)Nc2ncccn2)cc1` [Sulfadiazine, 4-amino-N-(2-pyrimidinyl)benzenesulfonamide, reference compound], for which the IC50 in series [1] (setting [5]) was roughly 2720 µg/mL (≈ 10900 µM). The “CC30 (concentration required for 30% cells proliferation inhibition)” value in series [3] is recorded as 1251.12 µg/mL. Moreover, in series [4], the “IC50 against proliferation of Toxoplasma gondii” value is listed as greater than 500 µg/mL.

`Cc1nc[nH]c1C(=O)NNC(=S)Nc1ccc([N+](=O)[O-])cc1` [Compound 4, 1-(4-Methylimidazol-5-oyl)-4-(4-nitrophenyl)thiosemicarbazide]: the melting point was 235 to 237 °C. Moreover, the “fold more potent than sulfadiazine” value in series [1] (T. gondii proliferation, IC50 ratio) amounted to 184 fold. Further, the IC50 in series [1] (setting [6]) turned out to be 21.6 µg/mL (≈ 67.5 µM). Further, in series [2] (L929 mouse fibroblast cells), the viability at 24 h, 3.91 µg/mL was found to be 98.5%; the viability at 24 h, 7.81 µg/mL is 95.7%; the viability at 24 h, 15.63 µg/mL was determined as 95.1%; the viability at 24 h, 31.25 µg/mL worked out at 93.1%. In series [2] (L929 mouse fibroblast cells), the viability at 24 h, 62.5 µg/mL worked out at 88.9%; the viability at 24 h, 125 µg/mL was 79.6%; the viability at 24 h, 250 µg/mL is 66.9%; the viability at 24 h, 500 µg/mL was 23.2%. The “CC30 (concentration required for 30% cells proliferation inhibition)” value in series [3] worked out at 238.78 µg/mL.

`Cc1nc[nH]c1C(=O)NNC(=S)Nc1ccccc1[N+](=O)[O-]` [Compound 2, 1-(4-Methylimidazol-5-oyl)-4-(2-nitrophenyl)thiosemicarbazide] displayed a melting point of 215 to 217 °C. Also, in series [1] (setting [6]), the IC50 was determined as 43 µg/mL (≈ 134 µM). In series [2] (L929 mouse fibroblast cells), the viability at 24 h, 3.91 µg/mL was determined as 103%; the viability at 24 h, 7.81 µg/mL is 101%; the viability at 24 h, 15.63 µg/mL worked out at 96.7%; the viability at 24 h, 31.25 µg/mL was 94.6%. Moreover, in series [2] (L929 mouse fibroblast cells), the viability at 24 h, 62.5 µg/mL turned out to be 89.7%; the viability at 24 h, 125 µg/mL is 75.3%; the viability at 24 h, 250 µg/mL amounted to 53.4%; the viability at 24 h, 500 µg/mL was found to be 29.1%. Besides, the “CC30 (concentration required for 30% cells proliferation inhibition)” value in series [3] was 181.55 µg/mL.

The molecule `COc1cccc(NC(=S)NNC(=O)c2[nH]cnc2C)c1` [Compound 6, 4-(3-Methoxyphenyl)-1-(4-methylimidazol-5-oyl)thiosemicarbazide] came in with a melting point of 196 to 198 °C. Besides, in series [1] (setting [6]), the IC50 turned out to be 79.7 µg/mL (≈ 261 µM). In series [2] (L929 mouse fibroblast cells), the viability at 24 h, 3.91 µg/mL was found to be 92.8%; the viability at 24 h, 7.81 µg/mL came to 88.6%; the viability at 24 h, 15.63 µg/mL turned out to be 86.2%; the viability at 24 h, 31.25 µg/mL was 83.3%. In addition, in series [2] (L929 mouse fibroblast cells), the viability at 24 h, 62.5 µg/mL amounted to 79.7%; the viability at 24 h, 125 µg/mL stood at 68.8%; the viability at 24 h, 250 µg/mL was determined as 67.3%; the viability at 24 h, 500 µg/mL was determined as 56.8%. For the same molecule, the “CC30 (concentration required for 30% cells proliferation inhibition)” value in series [3] was 165.96 µg/mL.

In turn, `Cc1nc[nH]c1C(=O)NNC(=S)NCCCl` [Compound 9] displayed a melting point of 175 to 177 °C. For the same molecule, the IC50 in series [1] (read-out: IC50 (50% inhibition of T. gondii proliferation in vitro)) was greater than 125 µg/mL. For the same molecule, in series [2], the viability at 24 h, 3.91 µg/mL is 100%; the viability at 24 h, 7.81 µg/mL was 98.3%; the viability at 24 h, 15.63 µg/mL was 97.1%; the viability at 24 h, 31.25 µg/mL came to 96%. For the same molecule, in series [2], the viability at 24 h, 62.5 µg/mL amounted to 95.6%; the viability at 24 h, 125 µg/mL stood at 94.4%; the viability at 24 h, 250 µg/mL turned out to be 92.8%; the viability at 24 h, 500 µg/mL turned out to be 87.4%. Further, the “CC30 (concentration required for 30% cells proliferation inhibition)” value in series [3] is >500.00 µg/mL and >500 µg/mL.

`Cc1nc[nH]c1C(=O)NNC(=S)Nc1cccc(Cl)c1` [Compound 10, 4-(3-Chlorophenyl)-1-(4-methylimidazol-5-oyl)thiosemicarbazide] showed a melting point of 203 to 205 °C. In addition, the IC50 in series [1] (setting [6]) came to 25.7 µg/mL (≈ 83 µM). In addition, in series [2] (L929 mouse fibroblast cells), the viability at 24 h, 3.91 µg/mL was determined as 95.7%; the viability at 24 h, 7.81 µg/mL was 94.1%; the viability at 24 h, 15.63 µg/mL is 93.5%; the viability at 24 h, 31.25 µg/mL came out at 74.6%. For the same molecule, in series [2] (L929 mouse fibroblast cells), the viability at 24 h, 62.5 µg/mL was 72.1%; the viability at 24 h, 125 µg/mL is 69.9%; the viability at 24 h, 250 µg/mL stood at 61.8%; the viability at 24 h, 500 µg/mL was determined as 22.1%. Further, in series [3], the “CC30 (concentration required for 30% cells proliferation inhibition)” value is listed as 112.20 µg/mL.
